In article PMC2099433, “The binding site for neohesperidin dihydrochalcone at the human sweet taste receptor” (BMC Structural Biology, 2007):
Residue numbers refer to the chain shown, from its start. Where a SMILES comes first, the peptide text is derived from it.

Experiments:
[1] = molecular target: T1, hTAS1R2 + hTAS1R3 L798I^7.36 (Homo sapiens, UniProt Q7RTX0+Q8TE23, L798I); assay: Calcium response (FLIPR), hTAS1R3 mutant coexpressed with hTAS1R2; type: cell-based; settings: variant L798I^7.36; for Emax: read-out: maximal signal (% of wt)
T1 construct: expressed in transfected cells; host or cells: HEK293T cells stably expressing G16Gust44
T1 sequence (Q8TE23 20-839): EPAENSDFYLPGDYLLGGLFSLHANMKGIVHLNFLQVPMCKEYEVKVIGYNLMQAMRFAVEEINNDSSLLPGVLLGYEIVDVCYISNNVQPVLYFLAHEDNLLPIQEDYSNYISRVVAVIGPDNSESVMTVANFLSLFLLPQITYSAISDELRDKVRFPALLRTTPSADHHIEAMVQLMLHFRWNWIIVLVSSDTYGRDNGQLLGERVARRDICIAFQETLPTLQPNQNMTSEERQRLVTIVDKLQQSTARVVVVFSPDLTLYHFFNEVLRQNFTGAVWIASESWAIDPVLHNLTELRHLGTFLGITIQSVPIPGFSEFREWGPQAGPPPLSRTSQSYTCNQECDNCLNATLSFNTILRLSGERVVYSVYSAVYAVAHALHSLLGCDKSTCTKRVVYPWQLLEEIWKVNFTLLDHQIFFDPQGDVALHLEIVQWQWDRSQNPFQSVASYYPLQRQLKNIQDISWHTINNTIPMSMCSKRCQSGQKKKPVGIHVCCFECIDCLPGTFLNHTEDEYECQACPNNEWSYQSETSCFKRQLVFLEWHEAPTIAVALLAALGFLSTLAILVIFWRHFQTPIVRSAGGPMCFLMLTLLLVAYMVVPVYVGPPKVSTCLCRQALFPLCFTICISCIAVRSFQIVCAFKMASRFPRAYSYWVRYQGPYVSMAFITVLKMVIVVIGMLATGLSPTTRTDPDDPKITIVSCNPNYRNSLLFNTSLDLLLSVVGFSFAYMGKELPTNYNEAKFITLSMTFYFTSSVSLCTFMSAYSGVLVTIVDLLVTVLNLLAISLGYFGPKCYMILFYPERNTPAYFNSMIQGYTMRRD
T1 sequence (Q7RTX0 21-852 L798I): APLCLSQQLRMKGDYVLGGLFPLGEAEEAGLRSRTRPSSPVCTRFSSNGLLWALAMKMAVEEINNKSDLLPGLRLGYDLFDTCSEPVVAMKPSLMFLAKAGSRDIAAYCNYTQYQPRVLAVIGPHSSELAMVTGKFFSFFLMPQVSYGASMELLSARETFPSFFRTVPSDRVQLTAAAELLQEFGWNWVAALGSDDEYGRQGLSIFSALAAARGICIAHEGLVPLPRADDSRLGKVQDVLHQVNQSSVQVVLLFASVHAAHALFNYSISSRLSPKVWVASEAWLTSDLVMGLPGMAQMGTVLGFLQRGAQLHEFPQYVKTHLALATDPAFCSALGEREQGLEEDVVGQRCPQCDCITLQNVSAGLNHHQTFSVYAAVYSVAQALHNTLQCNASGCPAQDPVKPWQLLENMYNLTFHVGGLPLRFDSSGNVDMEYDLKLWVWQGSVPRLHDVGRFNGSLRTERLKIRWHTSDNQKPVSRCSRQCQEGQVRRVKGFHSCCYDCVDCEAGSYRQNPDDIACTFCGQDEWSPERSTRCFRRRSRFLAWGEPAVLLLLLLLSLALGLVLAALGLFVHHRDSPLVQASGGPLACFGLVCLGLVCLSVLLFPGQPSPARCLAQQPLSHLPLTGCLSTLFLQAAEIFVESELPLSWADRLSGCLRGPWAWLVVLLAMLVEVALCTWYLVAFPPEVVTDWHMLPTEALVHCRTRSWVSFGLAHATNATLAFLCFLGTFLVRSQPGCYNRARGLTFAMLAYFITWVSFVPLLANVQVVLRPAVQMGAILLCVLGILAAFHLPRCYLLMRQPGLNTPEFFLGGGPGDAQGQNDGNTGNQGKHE
Procedure, shortened: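 HEK293T/G16Gust44, transient transfection of HSV-tagged TAS1R2 + TAS1R3 mutants; Fluo4-AM loading 1 h at 24 h; sweet tastants in C1 solution; FLIPR Ca2+ read; ΔF/F, mock-subtracted; ≥3 independent expts in duplicate.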

[2] = molecular target: T2, hTAS1R2/hTAS1R3 (Homo sapiens, UniProt Q7RTX0+Q8TE23); assay: Concentration-response curves of sweeteners in the presence of different lactisole concentrations; type: cell-based; settings: for Hill slope: constant over tested lactisole concentrations; for increase of EC50 value by lactisole: presence vs absence of lactisole
T2 construct: expressed in transfected cells; host or cells: HEK293T cells stably expressing G16Gust44
T2 sequence (Q8TE23 20-839): T1 sequence (Q8TE23 20-839)
T2 sequence (Q7RTX0 21-852): T1 sequence (Q7RTX0 21-852 L798I) with I778L

Row | EC50 [1] [µM] | Emax [1] [%] | EC50 ([2]; 0.0 μM lactisole) [mM] | Hill slope [2] | Hill coefficient ([2]; 0.0 μM lactisole) | Hill coefficient ([2]; 50 μM lactisole) | Hill coefficient ([2]; 100 μM lactisole) | increase of EC50 value by lactisole [2] | SMILES
1 | 900 ± 400 | 81 ± 5 | 0.5 ± 0.1 | ~ 2 | – | – | – | – | COC(=O)[C@H](Cc1ccccc1)NC(=O)[C@@H](N)CC(=O)O [aspartame] (HELM PEPTIDE1{D.F.[CO[*:1]]}$$$$V2.0)
2 | – | – | 0.12 ± 0.04 | ~ 2 | – | – | – | – | CC1=CC(=O)NS(=O)(=O)O1 [acesulfame K]
3 | 200 ± 200 | 66 ± 26 | 0.2 ± 0.1 | – | 0.8 | 1.2 | 1.5 | ~ fourfold | COc1ccc(CCC(=O)c2c(O)cc(O[C@@H]3O[C@H](CO)[C@@H](O)[C@H](O)[C@H]3O[C@@H]3O[C@@H](C)[C@H](O)[C@@H](O)[C@H]3O)cc2O)cc1O [NHDC, neohesperidin dihydrochalcone]
4 | – | – | 2.2 ± 0.3 | – | – | 2.5 | – | ~ fourfold | O=S(=O)(O)NC1CCCCC1 [cyclamate]
